Literature values in patent publication US9987593B2, “Method for producing NOx storage-reduction catalyst” (TOYOTA JIDOSHA KABUSHIKI KAISHA, priority 2016, dated 2018).

| solubility in water (in words) | solubility in water | Compound |
| --- | --- | --- |
| substantially insoluble in water |  | O=C(O)c1nc(=O)[nH]c(=O)[nH]1 [oteracil potassium, reference compound] |
| substantially insoluble in water | 0.18 mg/100 ml H2O | [K+].c1ccc([B-](c2ccccc2)(c2ccccc2)c2ccccc2)cc1 [potassium tetraphenylborate] |
